Values quoted from earlier work, collected in patent US20170247647A1, “FLAVOR NANOEMULSIONS AND METHODS OF PREPARING THE SAME” (International Flavors & Fragrances Inc., priority 2014, published 2017).

Key:
[1] = commercial surfactant

Row | Compound | Water Solubility (g/L, approx.) | HLB [1]
1 | CSC [dimethyl sulfide] | insoluble | 
2 | CCCC(=O)OC [methyl butyrate] | ~15 g/L | 
3 | Tween™ 20 |  | 16.7
4 | Tween™ 60 |  | 14.9
5 | Tween™ 80 |  | 15

Other lines, results leading:

Row | Water Solubility (g/L, approx.) | HLB [1] | Compound
6 | ~90 g/L |  | CCOC(C)=O [ethyl acetate]
7 | ~6 g/L |  | CCCC(=O)OCC [ethyl butyrate]
8 | ~14 g/L |  | CCOC(=O)CC [ethyl propionate]
